Laboratory results: patent US20240262806A1, “INHIBITORS OF NLRP3” (PTC THERAPEUTICS, INC., priority 2021, published 2024)

Tested on: NLRP3 inflammasome
Assay: IL-1β Secretion Assay (NLRP3-dependent IL-1β secretion in PMA-differentiated THP-1 cells, nigericin activation, HTRF)
Type: cell-based
Conditions: Homo sapiens, THP-1, THP-1 cells, 100 ng/mL PMA 24 h, compound 20 h, 2.5 μM Nigericin 3 h; read-out: IC50 IL-1β Inhibition
Experimental: Cells were washed 1× with 100 ul PBS and replaced with fresh RPMI+5% FBS. Compounds were serial diluted in DMSO with 3 fold dilution for a total of 7 concentrations.
Compounds, once produced and prepared according to the present invention, can be assessed in variety of assays to characterize their activities. […] IC50 values of IL1β inhibition were calculated from the plot of percentage of inhibition versus the inhibitor concentration by a logistics fit. TABLE I depict examples of compounds according to generic Formulae I. Data which is <1 nM is listed as *****; data 1-10 nM is listed as ****; data 10-100 nM is listed as ***, data 100-300 nM is listed as **, data >300 nM is listed as *.

| Structure (SMILES) | IC50 [nM] |
| --- | --- |
| COc1cccc(-c2nnc(N[C@@H]3CCCN(C)C3)c3cnccc23)c1O [Compound I-73] | < 1 |
| CN1CCC[C@@H](Nc2nnc(-c3cnc(C#N)cc3O)c3ccccc23)C1 [Compound I-74] | 10 to 100 |
| CN1CCC[C@@H](Nc2nnc(-c3ccc(C(F)(F)F)nc3O)c3ccccc23)C1 [Compound I-75] | 10 to 100 |
| CN1CCC[C@@H](Nc2nnc(-c3cccc(Cl)c3O)c3ccncc23)C1 [Compound I-76] | < 1 |
| CN1CCC[C@@H](Nc2nnc(-c3cccc(C4CC4)c3O)c3ccncc23)C1 [Compound I-77] | < 1 |
| Cc1ccc(-c2nnc(N[C@@H]3CCCN(C)C3)c3cnccc23)c(O)n1 [Compound I-78] | 10 to 100 |
| CN1CCC[C@@H](Nc2nnc(-c3cnc(C(F)(F)F)cc3O)c3ccccc23)C1 [Compound I-79] | 10 to 100 |
| CN1CCC[C@@H](Nc2nnc(-c3ccc(C#N)nc3O)c3ccccc23)C1 [Compound I-80] | 100 to 300 |
| CN1CCC[C@@H](Nc2nnc(-c3ncc(Cl)cc3O)c3ccccc23)C1 [Compound I-81, (R)-5-Chloro-2-(4-((1-methylpiperidin-3-yl)amino)phthalazin-1-yl)pyridin-3-ol] | 10 to 100 |
| Cc1cccc(-c2nnc(N[C@@H]3CCCN(C)C3)c3cnccc23)c1O [Compound I-82] | < 1 |
| Oc1cc(C(F)(F)F)ccc1-c1nnc(N[C@H]2CNC[C@H](O)C2)c2ccccc12 [Compound I-83] | 10 to 100 |
| CN1C[C@H](O)C[C@@H](Nc2nnc(-c3ccc(C(F)(F)F)cc3O)c3ccccc23)C1 [Compound I-84] | 10 to 100 |
| CN1CCC[C@@H](Nc2nnc(-c3ccc(C(F)(F)F)cc3O)c3occc23)C1 [Compound I-85] | 10 to 100 |
| Cc1ccc(-c2nnc(N[C@@H]3CCCN(C)C3)c3ncccc23)c(O)c1 [Compound I-86] | < 1 |
| CN1CCC[C@H]1CNc1nnc(-c2ccc(C(F)(F)F)cc2O)c2ccccc12 [Compound I-87] | 1 to 10 |
| Cc1cc(O)c(-c2nnc(N[C@@H]3CCCN(C)C3)c3cnccc23)cc1F [Compound I-88] | < 1 |
| CN1CCC[C@@H](Nc2nnc(-c3ccc(C4CC4)cc3O)c3ccncc23)C1 [Compound I-89] | < 1 |
| CN1CCC[C@@H](Nc2nnc(-c3ncc(C4CC4)cc3O)c3ccccc23)C1 [Compound I-91, (R)-5-Cyclopropyl-2-(4-((1-methylpiperidin-3-yl)amino)phthalazin-1-yl)pyridin-3-ol] | < 1 |
| CN1CCC[C@@H](Nc2nnc(-c3ccc(N4CCCC4)cc3O)c3ccccc23)C1 [Compound I-93] | 1 to 10 |
| CN1CCC[C@@H](Nc2nnc(-c3ccc(-c4ccn(C)c4)cc3O)c3ccccc23)C1 [Compound I-94] | 1 to 10 |
| CN1CCCCC(Nc2nnc(-c3ccc(C(F)(F)F)cc3O)c3ccccc23)C1 (stereo not drawn) [Compound I-95] | 1 to 10 |
| CN1CCC[C@@H](Cc2nnc(-c3ccc(C(F)(F)F)cc3O)c3ccccc23)C1 [Compound I-96, (S)-2-(4-((1-methylpiperidin-3-yl)methyl)phthalazin-1-yl)-5-(trifluoromethyl)phenol] | > 300 |
| CN1CCC[C@H](Cc2nnc(-c3ccc(C(F)(F)F)cc3O)c3ccccc23)C1 [Compound I-97, (R)-2-(4-((1-methylpiperidin-3-yl)methyl)phthalazin-1-yl)-5-(trifluoromethyl)phenol] | < 1 |
| O=C(O)CN1CCC[C@@H](Nc2nnc(-c3ccc(C(F)(F)F)cc3O)c3ccccc23)C1 [Compound I-98, (R)-2-(3-((4-(2-Hydroxy-4-(trifluoromethyl)phenyl)phthalazin-1-yl)amino)piperidin-1-yl)acetic acid] | < 1 |
| Cc1ccc(-c2nnc(N[C@@H]3CCCN(C)C3)c3ccncc23)c(O)c1 [Compound I-99] | < 1 |
| OCCN1CCC[C@@H](Nc2nnc(-c3ccc(C(F)(F)F)cc3O)c3cnccc23)C1 [Compound I-101] | < 1 |
| CN1CCC[C@@H](Nc2nnc(-c3ccc(OC(F)(F)F)cc3O)c3ccncc23)C1 [Compound I-102] | < 1 |
